We go through one molecule from ChEMBL document CHEMBL1629543, “Recovery of humoral immunity is critical for successful antiviral therapy in disseminated mouse adenovirus type 1 infection” (Antimicrob Agents Chemother, 2008).

Active and inactive are the calls of the source. No cut-off for these calls is given here.

One experiment concerns Murine adenovirus 1. To be noted: Liver, 100 mg/kg.
Experiment [1] is filed under the species Mus musculus. To be noted: BALB/c, 100 mg/kg.
Description: Immunosuppressive activity against MAV-1 infected BALB/c mouse assessed as inhibition of production of protective antibodies at 100 mg/kg, ip treated 8 days before infection for 3 weeks measured after 62 days postinfection
The species entered for experiment [2] is Mus musculus. The conditions noted are these: BALB/c, 100 mg/kg. This is another data set of the same source.
Description: Immunosuppressive activity against MAV-1 infected BALB/c mouse assessed as inhibition of production of protective antibodies at 100 mg/kg, ip treated 8 days before infection for 2 weeks measured after 62 days postinfection
The species entered for experiment [3] is Mus musculus. To be noted: BALB/c, T-cell, 100 mg/kg.
Description: Immunosuppressive activity against MAV-1 infected BALB/c mouse assessed as T cells suppression at 100 mg/kg, ip treated 8 days before infection for 4 weeks measured 14 days post infection by flow cytometry

Description for Murine adenovirus 1: Antiviral activity against MAV-1 infected in immunocompromized BALB/c mouse assessed as decrease in viral DNA load in liver at 100 mg/kg, ip treated 8 days before infection measured after 28 days post infection by RT-PCR

For `O=P1(N(CCCl)CCCl)NCCCO1` (centres undefined), the inhibition entry in the experiment with Murine adenovirus 1, in the experiment listed under Mus musculus [2] and in the experiment filed under Mus musculus [3] was “Active” throughout. The inhibition result in the experiment listed under Mus musculus [1] is “inactive”.
